# From patent publication US12663426B2, “Method and composition for measurement of nitric oxide” (The University of Chicago, priority 2019, dated 2026)
# Like-named read-outs stand apart in the source and are kept apart here.
# Experiments:
# [1] = Decomposition / NO release of DEA NONOate; type: physicochemical
# From the text: (§1) Sub-cellular nitric oxide quantification. […] (FIG. 16).
# Additionally, DEA-NONOate concentration follows first order decay and can be described with initial DEA-NONOate concentration (indicated by [NONOate]0).
# Next, in order to measure the relative activities of NOS3 at the plasma membrane and the TGN, a method was developed to quantify sub-cellular NO generated due to NOS3 activity. […] As the effective concentration of NO at any time, [NO]eff, changes with time, NOS3 activity is best quantified by the rate of NO production. Therefore, the decomposition rate constant (k1 sec^−1) of DEA-NONOate was first measured from its UV absorbance at 250 nm, to obtain [NO]eff over time in solution for fixed DEA-NONOate concentrations (FIG. 17a, Methods) (Ramamurthi, A. & Lewis, R. S. Measurement and modeling of nitric oxide release rates for nitric oxide donors. Chem. Res. Toxicol. 10, 408-413 (1997)). […]
# In vitro fluorescence measurements: All fluorescence studies were carried out on a Fluoromax-4 (Horiba Scientific, Japan) spectrophotometer. […] Fluorescence emission spectra were collected in the range of 560-620 nm (slit width=2 nm) for DAR and 655-700 nm (slit width=2 nm) for A647N. […] Fluorescence signal from NOckout. […] was recorded sequentially in the DAR (G) and A647N (R) channels before and after the addition of DEANONOate (30 μM) at timed intervals (30 s). […]
# [2] = 37° C., 100 mM phosphate buffer (pH 7.4); cited from earlier work
# NOS2 = molecular target: T1, NOS2 (Mus musculus, UniProt P29477); test: In cellulo specificity of NOckout to NO in LPS primed J774A.1 cells; type: cell-based; conditions: J774 cells, LPS; VAS2870 10 μM, ABAH 50 μM
# T1 construct: J774A.1 cells were treated with 1 μg/mL LPS for 12 h prior to the addition of NOckout; endogenous in cells; host or cells: J774A.1 macrophages primed with LPS
# Method: Pharmacological inhibition: Pharmacological inhibition of different enzymes were performed by employing known inhibitors. […] Cells were bathed in inhibitors 1 h prior to the addition of NOckout probes during the specificity experiment performed in J774A.1 cells.
# In cellulo specificity of NOckout to NO: In cellulo specificity of the NOckout probe towards NO^− was validated in J774A.1 cells. […] J774A.1 cells were treated with 1 μg/mL LPS for 12 h prior to the addition of NOckout (500 nM in HBSS) either in the presence or in absence of specific inhibitors. LPS addition was employed to induce the expression of NOS2NOX and MPO. […] After 90 minutes of incubation with the NOckout culture media was removed from the cells and three washes were performed using HBSS to remove extracellular NOckout before proceeding to the fluorescence imaging. […]
# The in-cell specificity of NOckout can be evaluated by measuring the contribution of the reactive species produced by NOX, MPO and NOS2 to the observed fold change in G/R ratio upon LPS stimulation. […] As NOS2 activity is not pan-endosomal, specificity is given by quantifying the percentage of endosomes that show G/R values higher than the mean G/R value in endosomes of unstimulated, NOS2 inhibited cells, as the latter corresponds to basal endosomal NO levels (FIG. 6c).
# NOS3 = test: Sub-cellular nitric oxide quantification (rate of NO production, in-cell calibration); type: cell-based; conditions: T-47D cells, 1 μM thapsigargin
# Method: as §1
# After characterizing NO releasing profile of DEA NONOate, cellular NO production was compared to NO released from DEA-NONOate. […] As expected G/B intensity increases over time and the rate of increase is proportional to DEA-NONOate concentration. Then 1 μM thapsigargin was added to get the initial rate of NO production at the plasma membrane.
# Note this only applies to the initial phase of DAR activation where [DAR] can be considered as constant. From the predicted [NO] from DEA-NONOate, the tested concentration of NONOate, the first 30 s [NO] increases with t. […]
# Using the calibration curve, the initial G/B rates from thapsigargin treated cells is plugged in and the plasma membrane NO production was measured to be 576±61 nM/s (FIG. 3e).
# Next, in order to measure the relative activities of NOS3 at the plasma membrane and the TGN, a method was developed to quantify sub-cellular NO generated due to NOS3 activity. […] As the effective concentration of NO at any time, [NO]eff, changes with time, NOS3 activity is best quantified by the rate of NO production. […]
# An in-cell calibration protocol was developed to measure the rate of NO production for various concentrations of DEA-NONOate using NOckout probes. […] NOckout^PM labeled cells was then treated with 1 μM thapsigargin and measured the rate of NO production given by the increasing G/B ratio. […]
# murine TLR-9 = molecular target: T2, murine TLR-9 (Mus musculus, UniProt Q9EQU3); test: Endosomal NO in primary mouse microglia with NOckout^mCpG; type: cell-based; conditions: primary microglia, versus NOckout^mCpG, n=100 endosomes
# T2 construct: endogenous in cells; host or cells: primary microglia from C57BL/6 mice
# T2 sequence (Q9EQU3 26-1032): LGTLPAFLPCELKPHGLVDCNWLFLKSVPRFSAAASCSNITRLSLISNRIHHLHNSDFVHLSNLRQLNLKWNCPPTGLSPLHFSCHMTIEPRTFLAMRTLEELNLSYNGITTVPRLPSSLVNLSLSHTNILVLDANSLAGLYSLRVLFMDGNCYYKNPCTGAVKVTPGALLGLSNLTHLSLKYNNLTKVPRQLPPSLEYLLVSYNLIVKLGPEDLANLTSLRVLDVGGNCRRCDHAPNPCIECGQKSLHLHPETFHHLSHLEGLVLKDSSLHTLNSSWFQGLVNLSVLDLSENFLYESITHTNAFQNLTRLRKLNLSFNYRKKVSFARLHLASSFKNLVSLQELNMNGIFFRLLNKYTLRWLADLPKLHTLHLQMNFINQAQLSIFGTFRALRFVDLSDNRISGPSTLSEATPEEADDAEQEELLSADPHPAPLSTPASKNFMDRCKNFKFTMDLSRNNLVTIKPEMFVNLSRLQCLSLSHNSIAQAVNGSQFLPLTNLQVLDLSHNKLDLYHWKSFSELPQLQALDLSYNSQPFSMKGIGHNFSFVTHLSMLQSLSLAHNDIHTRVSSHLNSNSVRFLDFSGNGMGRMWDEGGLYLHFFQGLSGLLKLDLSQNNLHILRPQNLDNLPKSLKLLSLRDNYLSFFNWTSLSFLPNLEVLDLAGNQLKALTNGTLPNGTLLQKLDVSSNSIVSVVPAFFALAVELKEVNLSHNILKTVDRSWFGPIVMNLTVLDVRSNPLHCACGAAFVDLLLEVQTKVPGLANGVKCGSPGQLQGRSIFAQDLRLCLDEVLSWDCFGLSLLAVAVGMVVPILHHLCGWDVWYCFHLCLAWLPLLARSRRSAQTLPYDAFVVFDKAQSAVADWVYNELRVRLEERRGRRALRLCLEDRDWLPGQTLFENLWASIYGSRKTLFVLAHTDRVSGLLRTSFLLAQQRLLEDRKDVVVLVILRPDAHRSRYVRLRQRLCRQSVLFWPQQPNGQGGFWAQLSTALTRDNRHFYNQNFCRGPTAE
# From the text: Image analysis: A MATLAB based program called Findosome was used to calculate the (G/R) values of individual endosomes from the acquired images. Maximum Z-projected images created using Fiji (NIH) were fed to Findosome to pick endosomal compartments as ROI corresponding to individual endosomes based on the A647 channel intensity. For each ROI, the program calculates fluorescence intensities both in the normalizing channel (A647, R) as well as in the DAR (G) channel. The results were exported as an excel file. From the results, (G/R) value for individual endosomes can be calculated. Phagosomal (G/R) values from the zebrafish microglia are calculated using Fiji software. Images were imported to Fiji and maximum Z-projected images were created. ROI were manually drawn around clearly identifiable phagosomes using the normalizing channel A647 intensity. Fluorescence intensities in A647 and DAR channels were calculated. G/R values are either represented as heat map images using Fiji or as bar graph using Origin software. Intracellular measurements of (G/R) values was performed in GFP colocalized microglia. For (G/R) ratio quantification experiments, only those vesicles that are present in both green (G) and red (R) channels were considered. […]
# TNF-α = TNF-α quantification by ELISA in J774A.1 cells; type: cell-based; conditions: 500 nM, 2 h
# Method: TNF-α Quantification: To quantify the immunogenicity NOckout probes and the corresponding immunogen alone, ELISA for TNF-α was performed in J774A.1 cells. Briefly, J774A.1 cells cultured in DMEM were incubated with 500 nM NOckout sensors, CpG nucleotides, RNA, or LPS at 37° C. for 2 h. Postincubation 100 μL of extracellular medium from the culture was used to perform TNF-α quantification using ELISA kit (Cayman, catalog number 500850) according to manufacturers instructions. The calibration curve for TNF-α was generated using recombinant. TNF-α as per the vendor's instructions.
# We treated J774A.1 cells with each PAMP motif, for example mCpG, zCpG, RNA, or iRNA and their corresponding NOckout display vairent and quantified TNFα in the extracellular milieu by enzyme-linked immunisorbent assay (ELISA) (FIG. 47). […] This is because, beyond 2 h in cell culture, the probe is degraded in lysosomes, likely by DNase II, NOckout probes therefore can reliably report on endosomal NO levels only up to 2 h postinternalization (FIG. 45).
compound,measurement,setting,value
"CCN(CC)/[N+]([O-])=N/O.CCNCC [DEA NONOate, Diethylamine NONOate]","k1, decomposition rate constant",[1]; calculated from UV absorption at 250 nm,0.00131 s⁻¹
same,half-life,[1]; pH 7.4 at 25° C.,about 9 min
same,half-life,[2],2 min
c1ccc(Cn2nnc3c(Sc4nc5ccccc5o4)ncnc32)cc1 [VAS2870],NO signal of NOckout with inhibitor,NOS2,did not reduce NO signal
C/C=C(/C)C(=O)O[C@H]1C(C)=C2[C@H]([C@@H]1OC(=O)CCCCCCC)[C@@](C)(OC(C)=O)C[C@H](OC(=O)CCC)[C@@]1(O)[C@H]2OC(=O)[C@@]1(C)O [thapsigargin],rate of NO production at the plasma membrane,NOS3; NOckout^PM,576 ± 61 nM/s
same,initial rate of NO production at the TGN,NOS3; NOckout^TGN,74 ± 41 nM/s
"NOckout^mGpC: control of NOckout^mCpG with non-immunostimulatory GpC motifs (TGCTGTCTGGTGTGCAGTGTTGATTTTCCATGAGCTTCCTGACCTT; DNA nanodevice strand, phosphorothioate ODN overhang and dyes, pattern not given here)",reduction of NO-rich endosomes,murine TLR-9,40%
same,TNF-α in the extracellular milieu,TNF-α,dramatic reduction in TNF-α levels
